Holding throughout (test): NCI tumour cell line growth inhibition, 48 h
Assay [1] has as its system RXF 393 renal.
The subject of assay [2] is UACC-257 melanoma.
In assay [3] the test system is HS 578T breast.
Assay [4] relates to SR leukemia.
For assay [5], the system named is MCF7 breast.
The subject of assay [6] is ACHN renal.
Assay [7] has as its system TK-10 renal.
In assay [8] the test system is HCT-116 colon.
Assay [9] has as its system SF-295 CNS.
The test system of assay [10] is KM12 colon.

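All cell lines were grown in 96-well plates and treated with compound for 48 hours. GI50: concentration for 50% inhibition of growth. TGI is the concentration that stops growth completely.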

With `Cc1cc(Nc2nc(C(=O)Nc3ccccc3)nc3ccccc23)n[nH]1`, the GI50 in assay [1] is 3.66 µM; in [2], more than 25 µM; in assay [3] it was 7.68 µM; in assay [4] it was 4.36 µM; in assay [5] it was 13 µM; in [6] it was 2.87 µM. The GI50 in [7] was 2.52 µM; in assay [8], 4.7 µM; in assay [9], 7.82 µM; in [10] it was 3.68 µM. Further, the TGI in assay [1], in assay [2], in assay [3], in assay [4], in assay [5] and in assay [6] was more than 25 µM in each case. For the same compound, the TGI in [7], in assay [8], in [9] and in [10] was more than 25 µM each time.

In the case of `CN(C)c1ccc(/C=C2\N=C(c3ccccc3)N(c3cc(C(F)(F)F)ccc3Cl)C2=O)cc1`, the GI50 was more than 100 µM in assay [1]; more than 100 µM in assay [2]; more than 100 µM in [3]; 0.0633 µM in assay [4]; 99.8 µM in assay [5]; more than 100 µM in [6]. Also, the GI50 in [7], in [8], in assay [9] and in assay [10] was more than 100 µM in each case. The TGI in assay [1], in assay [2], in [3], in [5], in assay [6] and in assay [7] was more than 100 µM throughout. In addition, the TGI in [8], in [9] and in assay [10] was more than 100 µM in each case.

For the compound `C#CCNC(=S)N/N=C(\C)c1ccccn1`, the GI50 in assay [1] is 0.641 µM; in [2], 0.302 µM; in [3], 9.84 µM; in assay [4] it was 0.328 µM; in assay [5], 0.0792 µM; in assay [6], 0.313 µM. Moreover, the GI50 in assay [7] was 3.07 µM; in assay [8], 0.0329 µM; in [9], 0.706 µM; in assay [10], 0.426 µM. Also, the TGI in assay [1] was 4.9 µM; in assay [2], 1.49 µM; in assay [3] it was more than 100 µM; in assay [4], 3.4 µM; in assay [5], more than 100 µM; in assay [6], more than 100 µM. The TGI is more than 100 µM in assay [7], more than 38 µM in assay [8], more than 100 µM in [9] and more than 100 µM in assay [10].

Regarding `CNNC(=N\S(=O)(=O)c1cc(C)c(Cl)cc1SCc1ccccc1)/N=C/c1ccc([N+](=O)[O-])s1`, the GI50 was more than 100 µM in [1]; more than 100 µM in assay [2]; more than 100 µM in [3]; 41.2 µM in [4]; 97.9 µM in [5]; more than 100 µM in [6]. Also, the GI50 was more than 74.9 µM in assay [7], 1.53 µM in assay [8], more than 87.7 µM in assay [9] and 3.03 µM in [10]. Besides, the TGI in [1], in assay [2], in assay [3], in [4], in assay [5] and in assay [6] was more than 100 µM throughout. Further, the TGI in assay [7], in assay [8], in assay [9] and in assay [10] was more than 100 µM throughout.

For the compound `O=[N+]([O-])c1nccn1CC(O)CN1CCCCC1` (centres undefined), the TGI in assay [1], in assay [2], in assay [3], in [4], in [5] and in assay [6] was more than 100 µM each time. The TGI in assay [7], in [8], in assay [9] and in assay [10] was more than 100 µM each time.

For `COC(=O)C(CCC(=O)CCl)N1C(=O)c2ccccc2C1=O` (centres undefined), the TGI in assay [1] was found to be 6.45 µM; in assay [2], 22.2 µM; in assay [3], 32.4 µM; in assay [4] it was 11.7 µM; in [5], 18.5 µM; in assay [6], 13.9 µM. Moreover, the TGI in [7] was found to be 21.5 µM; in assay [8], 14.5 µM; in assay [9] it was 35.2 µM; in assay [10], 36.9 µM.

Turning to `O=C(Nc1ccc(-n2ccc3c(NC(=O)c4ccccc4)ncnc32)cc1)c1cccc(C(F)(F)F)c1`, the GI50 is 3.39 µM in assay [1]; 10.2 µM in assay [2]; 3.65 µM in assay [3]; 0.0678 µM in assay [4]; 1.39 µM in [5]; 1.09 µM in assay [6]. Further, the GI50 in [7] was 8.57 µM; in assay [8] it was 0.139 µM; in assay [9] it was 1.07 µM; in [10], 0.626 µM. In addition, the TGI in assay [1] was 19.9 µM; in assay [2] it was 32.1 µM; in assay [3] it was 33.3 µM; in assay [4] it was more than 32.5 µM; in [5] it was 18.5 µM; in assay [6], 23.6 µM. In addition, the TGI in [7] amounted to 27.2 µM; in assay [8], 15.9 µM; in assay [9], 16.9 µM; in assay [10] it was 16.7 µM.

As to `CC(C)c1nc(N(C)S(C)(=O)=O)nc(-c2ccc(F)cc2)c1/C=C/[C@@H](O)C[C@@H](O)CC(=O)O`, the GI50 was 41.5 µM in assay [1]; more than 100 µM in assay [2]; 51.9 µM in [3]; 32.7 µM in assay [4]; more than 100 µM in assay [5]; 34.2 µM in [6]. For the same compound, the GI50 in assay [7] is more than 100 µM; in assay [8] it was 59.5 µM; in [9], 32.7 µM; in [10], more than 100 µM. Moreover, the TGI in [1], in assay [2], in assay [3], in assay [4], in assay [5] and in [6] was more than 100 µM throughout. Further, the TGI in assay [7], in [8], in assay [9] and in [10] was more than 100 µM each time.

The values are drawn from PubChem BioAssay (NCI).
